Experimental data taken from publication PMC9670689 (ACS Omega, 2022).
Values after ≈ are worked out from the molar mass of the structure shown.

Columns and labels:
neuraminidase = experiment: Colorimetric neuraminidase inhibition assay; type: biochemical
[1] = system: Seasonal influenza A/Egypt/NRC098/2019(H1N1); experiment: microbe, parasite or virus in culture; type: cell-based, seasonal human influenza A/H1N1 virus; conditions: H1N1, MDCK, in Homo sapiens

CC1=C2[C@H]3OC(=O)[C@@H](C)[C@@H]3CC[C@@]2(C)C=CC1=O [santonin] was tested, and the “toxic effect in MDCK cells (in words)” value (MDCK cells) was “slightly toxic effect”, the “neuraminidase inhibition activity (in words)” value (neuraminidase; all tested concentrations (10 mM to 1 μM), compared to zanamivir) was “dose-dependant neuraminidase inhibition activities” and the neuraminidase activity (neuraminidase; following treatment with 1 μM) was 0.65 ± 0.18 units/mL. For the same compound, the neuraminidase activity (neuraminidase; following treatment with 10 μM) was 0.42 ± 0.08 units/mL, the neuraminidase activity (neuraminidase; following treatment with 100 μM) was 0.41 ± 0.06 units/mL and the neuraminidase activity (neuraminidase; following treatment with 1 mM) was 0.35 ± 0.11 units/mL. The neuraminidase activity (neuraminidase; following treatment with 10 mM) was 0.14 ± 0.097 units/mL and the IC50 [1] was 2.91 µg/mL (≈ 11.8 µM).
